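Step 1: Grow cells in 96-well plates. Step 2: Expose to compound for 48 hours at 5 concentrations. Step 3: Interpolate endpoints linearly; if unreached, use highest concentration. GI50 = concentration required for 50% inhibition of growth.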 Activity calls are given as the source filed them. Rule as the data show it: active = GI50 up to about 1.1 µM and inactive = higher.
Assays:
Experiment in all cases: NCI tumour cell line growth inhibition, 48 h
SK-MEL-2 = system: SK-MEL-2
OVCAR-8 = system: OVCAR-8
SK-MEL-28 = system: SK-MEL-28
OVCAR-3 = system: OVCAR-3
COLO 205 = system: COLO 205
OVCAR-5 = system: OVCAR-5
SN12C = system: SN12C
786-0 = system: 786-0
DLD-1 = system: DLD-1
DMS-114 = system: DMS-114
IGROV-1 = system: IGROV-1
SK-MEL-5 = system: SK-MEL-5
TK-10 = system: TK-10
U-251 = system: U-251
UO-31 = system: UO-31
RPMI-8226 = system: RPMI-8226
Malme-3M = system: Malme-3M
HCC 2998 = system: HCC 2998
SNB-78 = system: SNB-78
M19-MEL = system: M19-MEL
SK-OV-3 = system: SK-OV-3
HCT-116 = system: HCT-116
SNB-19 = system: SNB-19
SNB-75 = system: SNB-75
KM12 = system: KM12
HT-29 = system: HT-29
SF-539 = system: SF-539
NCI-H522 = system: NCI-H522
HCT-15 = system: HCT-15
MOLT-4 = system: MOLT-4
K562 = system: K562
LOX IMVI = system: LOX IMVI
LXFL 529 = system: LXFL 529
A549 = system: A549
SW-620 = system: SW-620
KM-20L2 = system: KM-20L2
M14 = system: M14
SF-268 = system: SF-268
A498 = system: A498
ACHN = system: ACHN
RXF 393 = system: RXF 393
OVCAR-4 = system: OVCAR-4
UACC-62 = system: UACC-62
CCRF-CEM = system: CCRF-CEM
NCI-H23 = system: NCI-H23
NCI-H460 = system: NCI-H460

Compound: COc1cc(Cn2c3ccccc3c3cc(C)cc(OC)c32)cc2c1[nH]c1ccccc12
- GI50 (SK-MEL-2): > 25 µM (inactive)
- GI50 (OVCAR-8): 10.5 µM (inactive)
- GI50 (SK-MEL-28): > 25 µM (inactive)
- GI50 (OVCAR-3): 10.2 µM (inactive)
- GI50 (COLO 205): > 25 µM (inactive)
- GI50 (OVCAR-5): > 25 µM (inactive)
- GI50 (SN12C): > 25 µM (inactive)
- GI50 (786-0): > 25 µM (inactive)
- GI50 (DLD-1): > 25 µM (inactive)
- GI50 (DMS-114): 20 µM (inactive)
- GI50 (IGROV-1): > 25 µM (inactive)
- GI50 (SK-MEL-5): > 25 µM (inactive)
- GI50 (TK-10): > 25 µM (inactive)
- GI50 (U-251): > 25 µM (inactive)
- GI50 (UO-31): > 25 µM (inactive)
- GI50 (RPMI-8226): > 25 µM (inactive)
- GI50 (Malme-3M): > 25 µM (inactive)
- GI50 (HCC 2998): > 25 µM (inactive)
- GI50 (SNB-78): 23.1 µM (inactive)
- GI50 (M19-MEL): > 25 µM (inactive)
- GI50 (SK-OV-3): > 25 µM (inactive)
- GI50 (HCT-116): > 25 µM (inactive)
- GI50 (SNB-19): > 25 µM (inactive)

Compound: CN1CCN(CN2C(=O)C3C4C=CC(C3C2=O)C2C3C(=O)N(CN5CCN(C)CC5)C(=O)C3C42)CC1 (stereo not drawn)
- GI50 (SNB-75): 27.7 µM (inactive)
- GI50 (OVCAR-8): 24.7 µM (inactive)
- GI50 (KM12): 32.7 µM (inactive)
- GI50 (SK-MEL-28): 19.3 µM (inactive)
- GI50 (OVCAR-3): 29.1 µM (inactive)
- GI50 (COLO 205): 20.2 µM (inactive)
- GI50 (OVCAR-5): 22.1 µM (inactive)
- GI50 (HT-29): 45.9 µM (inactive)
- GI50 (SF-539): 24.7 µM (inactive)
- GI50 (NCI-H522): 12.5 µM (inactive)
- GI50 (HCT-15): 14.6 µM
- GI50 (SN12C): 22.5 µM (inactive)
- GI50 (MOLT-4): 29.9 µM (inactive)
- GI50 (K562): 28.2 µM (inactive)
- GI50 (786-0): 18.4 µM (inactive)
- GI50 (DLD-1): 24.1 µM (inactive)
- GI50 (DMS-114): 19.6 µM (inactive)
- GI50 (IGROV-1): 42.6 µM (inactive)
- GI50 (SK-MEL-5): 30.4 µM (inactive)
- GI50 (TK-10): 31.1 µM (inactive)
- GI50 (LOX IMVI): 17.4 µM (inactive)
- GI50 (U-251): 18.2 µM (inactive)
- GI50 (LXFL 529): 23.8 µM (inactive)
- GI50 (A549): 18.6 µM (inactive)
- GI50 (SW-620): 16.4 µM (inactive)
- GI50 (UO-31): 32.1 µM (inactive)
- GI50 (RPMI-8226): 34.2 µM (inactive)
- GI50 (HCC 2998): 27.7 µM (inactive)
- GI50 (KM-20L2): 25.5 µM (inactive)
- GI50 (M14): 21.3 µM (inactive)
- GI50 (SF-268): 17.2 µM (inactive)
- GI50 (A498): > 100 µM (inactive)
- GI50 (ACHN): 19.1 µM (inactive)
- GI50 (RXF 393): 20.7 µM (inactive)
- GI50 (OVCAR-4): 24.5 µM (inactive)
- GI50 (UACC-62): 24.1 µM (inactive)
- GI50 (HCT-116): 13 µM (inactive)
- GI50 (CCRF-CEM): 22 µM (inactive)
- GI50 (NCI-H23): 28.7 µM (inactive)
- GI50 (NCI-H460): 13.5 µM (inactive)

— ChEMBL document CHEMBL1201862, “PubChem BioAssay data set” (2004)
